From patent US12729377B2, “RNAi agents and compositions for inhibiting expression of angiopoietin-like 3 (ANGPTL3), and methods of use” (Arrowhead Pharmaceuticals, Inc., priority 2017, dated 2026)
In the oligonucleotide strings, read from the 5' end, every base follows the letter of its sugar. An asterisk marks phosphorothioate; unmarked linkages are phosphodiester. Other units and linkages are bracketed, terminal groups are in braces. A string of capitals states the bases alone. {NAG37} = tridentate N-acetyl-galactosamine targeting ligand, structure (NAG37)s; [invAb] = inverted abasic unit; m = 2'-O-methyl; f = 2'-fluoro

Columns and labels:
ANGPTL3 protein [1] = assay: Example 7: serum ANGPTL3 protein by ELISA in mice; assay type: in vivo, C57bl/6 mice; design: key: ratio: (level/pre-treatment day -1 level) ÷ mean of D5W control group
Procedure: (§1) To further assess the in vivo activity of additional ANGPTL3 RNAi agents that are designed to target position 304 on the ANGPTL3 gene, six- to eight-week-old female C57bl/6 mice were used. Pre-dose serum samples were taken at day −1 after a four hour fast. At day 1, each mouse was given a single subcutaneous administration of 200 μl containing 0.5 mg/kg (mpk) of an ANGPTL3 RNAi agent in D5W (dextrose in 5% water), or control (D5W) with no RNAi agent, according to the dosing groups recited in Table 31.
(§2) Each of the RNAi agents included a modified sequence and an N-acetyl-galactosamine-containing targeting ligand conjugated to the 5′ terminal end of the sense strand. (See Tables 3, 4, and 5 for modified sequences and targeting ligand structures). The injections were performed between the skin and muscle (i.e. subcutaneous injections) into the loose skin over the neck and shoulder area. Three (3) mice in each group were tested (n=3). Serum was collected on days 8, 15, 22, and 29. Mice were fasted for four hours prior to each collection. ANGPTL3 protein levels in serum were measured by ELISA assay (R&D Systems), according to the manufacturer's recommendations. Triglycerides, total cholesterol, high-density lipoprotein (HDL), and low-density lipoprotein (LDL) in serum were measured on a Cobas® Integra 400 (Roche Diagnostics), according to the manufacturer's recommendations.
(§3) The ANGPTL3 protein levels, triglyceride levels, total cholesterol levels, HDL levels, and LDL levels for each animal were normalized. For normalization, the level of ANGPTL3 protein, triglyceride, HDL, and total cholesterol, respectively, for each animal at a time point, was divided by the pre-treatment level of expression in that animal (in this case at day −1) to determine the ratio of expression “normalized to pre-treatment.” Expression at a specific time point was then normalized to the D5W control group by dividing the “normalized to pre-treatment” ratio for an individual animal by the mean “normalized to pretreatment” ratio of all mice in the D5W control group.

ANGPTL3 gene [2] = assay: Example 7: serum HDL in mice; assay type: in vivo; design: key: ratio: (level/pre-treatment day -1 level) ÷ mean of D5W control group; conditions: 0.5 mg/kg single SC injection day 1, female C57bl/6 mice, n=3, ratio to D5W control
Procedure: as §1, §2, §3

ANGPTL3 gene [3] = assay: Example 7: serum LDL in mice; assay type: in vivo; design: key: ratio: (level/pre-treatment day -1 level) ÷ mean of D5W control group; conditions: 0.5 mg/kg single SC injection day 1, female C57bl/6 mice, n=3, ratio to D5W control
Procedure: as §1, §2, §3

ANGPTL3 gene [4] = assay: Example 7: serum total cholesterol in mice; assay type: in vivo, C57bl/6 mice; design: key: ratio: (level/pre-treatment day -1 level) ÷ mean of D5W control group
Procedure: as §1, §2, §3

ANGPTL3 gene [5] = assay: Example 7: serum triglycerides in mice; assay type: in vivo, C57bl/6 mice; design: key: ratio: (level/pre-treatment day -1 level) ÷ mean of D5W control group
Procedure: as §1, §2, §3

ANGPTL3 gene [6] = assay: Example 4: serum LDL in mice; assay type: in vivo, C57bl/6 mice; conditions: for Avg LDL, normalized to pre-treatment and control: 1.0 mg/kg single SC injection on day 1, serum, n=3
Procedure: as §1, with “To” for “To further”, “of” for “of additional”, “additional positions” for “position 304”, “containing either 1 mg/kg (mpk) or” for “containing”, “17.” for “31.”
as §2, with “22, 29,” for “22,”, “day 43 (Groups 1-3, 9, and 11-13 only).” for “29.”, “Triglycerides,” for “Triglycerides, total cholesterol,”, “total cholesterol” for “low-density lipoprotein (LDL)”
(§4) The ANGPTL3 protein levels, triglyceride levels, HDL levels, and total cholesterol levels for each animal were normalized. For normalization, the level of ANGPTL3 protein, triglyceride, HDL, and total cholesterol, respectively, for each animal at a time point, was divided by the pre-treatment level of expression in that animal (in this case at day −1) to determine the ratio of expression “normalized to pre-treatment.” Expression at a specific time point was then normalized to the D5W control group by dividing the “normalized to pre-treatment” ratio for an individual animal by the mean “normalized to pretreatment” ratio of all mice in the D5W control group.

ANGPTL3 gene [7] = assay: Example 4: serum HDL in mice; assay type: in vivo, C57bl/6 mice
Procedure: as §1, with “To” for “To further”, “of” for “of additional”, “additional positions” for “position 304”, “containing either 1 mg/kg (mpk) or” for “containing”, “17.” for “31.”
as §2, with “22, 29,” for “22,”, “day 43 (Groups 1-3, 9, and 11-13 only).” for “29.”, “Triglycerides,” for “Triglycerides, total cholesterol,”, “total cholesterol” for “low-density lipoprotein (LDL)”
as §4

ANGPTL3 gene [8] = assay: Example 4: serum total cholesterol in mice; assay type: in vivo, C57bl/6 mice
Procedure: as §1, with “To” for “To further”, “of” for “of additional”, “additional positions” for “position 304”, “containing either 1 mg/kg (mpk) or” for “containing”, “17.” for “31.”
as §2, with “22, 29,” for “22,”, “day 43 (Groups 1-3, 9, and 11-13 only).” for “29.”, “Triglycerides,” for “Triglycerides, total cholesterol,”, “total cholesterol” for “low-density lipoprotein (LDL)”
as §4

ANGPTL3 protein [9] = assay: Example 4: serum ANGPTL3 protein by ELISA in mice; assay type: in vivo, C57bl/6 mice; conditions: for Avg ANGPTL3 (Average ANGPTL3 Protein Normalized to Pre-Treatment and Control): 1.0 mg/kg single subcutaneous dose on day 1, serum, female C57bl/6 mice
Procedure: as §1, with “To” for “To further”, “of” for “of additional”, “additional positions” for “position 304”, “containing either 1 mg/kg (mpk) or” for “containing”, “17.” for “31.”
as §2, with “22, 29,” for “22,”, “day 43 (Groups 1-3, 9, and 11-13 only).” for “29.”, “Triglycerides,” for “Triglycerides, total cholesterol,”, “total cholesterol” for “low-density lipoprotein (LDL)”
as §4

ANGPTL3 gene [10] = assay: Example 4: serum triglycerides in mice; assay type: in vivo
Procedure: as §1, with “To” for “To further”, “of” for “of additional”, “additional positions” for “position 304”, “containing either 1 mg/kg (mpk) or” for “containing”, “17.” for “31.”
as §2, with “22, 29,” for “22,”, “day 43 (Groups 1-3, 9, and 11-13 only).” for “29.”, “Triglycerides,” for “Triglycerides, total cholesterol,”, “total cholesterol” for “low-density lipoprotein (LDL)”
as §4

[11] = Day 8, 0.5 mg/kg single SC injection on day 1, n=3
[12] = Day 15, 0.5 mg/kg single SC injection on day 1, n=3
[13] = Day 22, 0.5 mg/kg single SC injection on day 1, n=3
[14] = Day 29, 0.5 mg/kg single SC injection on day 1, n=3
[15] = Day 8, 1.0 mg/kg single SC injection on day 1, n=3
[16] = Day 15, 1.0 mg/kg single SC injection on day 1, n=3
[17] = Day 22, 1.0 mg/kg single SC injection on day 1, n=3
[18] = Day 29, 1.0 mg/kg single SC injection on day 1, n=3
[19] = Day 43, 1.0 mg/kg single SC injection on day 1, n=3

## AD05777: RNAi agent duplex: antisense AM07235-AS, sense AM07610-SS (antisense UACUGAUCAAAUAUGUUGAGC; sense GCUCAACNUNUUUGAUCAGUA; (NAG37)s GalNAc ligand; RNAi agent antisense strand modified sequence; RNAi agent sense strand modified sequence; modified_base 8, 10 n = 2′-O-methyl-2-aminoadenosine-3′-phosphate)
ANGPTL3 protein [1]; [11]
  Avg ANGPTL3, normalized to pre-treatment and control: 0.297
ANGPTL3 protein [1]; [12]
  Avg ANGPTL3, normalized to pre-treatment and control: 0.246
ANGPTL3 protein [1]; [13]
  Avg ANGPTL3, normalized to pre-treatment and control: 0.257
ANGPTL3 protein [1]; [14]
  Avg ANGPTL3, normalized to pre-treatment and control: 0.345
ANGPTL3 gene [2]; Day 8
  Avg HDL, normalized to pre-treatment and control: 0.784
ANGPTL3 gene [2]; Day 15
  Avg HDL, normalized to pre-treatment and control: 0.768
ANGPTL3 gene [2]; Day 22
  Avg HDL, normalized to pre-treatment and control: 0.801
ANGPTL3 gene [2]; Day 29
  Avg HDL, normalized to pre-treatment and control: 1.008
ANGPTL3 gene [3]; Day 8
  Avg LDL, normalized to pre-treatment and control: 0.886
ANGPTL3 gene [3]; Day 15
  Avg LDL, normalized to pre-treatment and control: 0.869
ANGPTL3 gene [3]; Day 22
  Avg LDL, normalized to pre-treatment and control: 0.966
ANGPTL3 gene [3]; Day 29
  Avg LDL, normalized to pre-treatment and control: 1.224
ANGPTL3 gene [4]; [11]
  Avg Total Chol, normalized to pre-treatment and control: 0.797
ANGPTL3 gene [4]; [12]
  Avg Total Chol, normalized to pre-treatment and control: 0.800
ANGPTL3 gene [4]; [13]
  Avg Total Chol, normalized to pre-treatment and control: 0.794
ANGPTL3 gene [4]; [14]
  Avg Total Chol, normalized to pre-treatment and control: 0.995
ANGPTL3 gene [5]; [11]
  Avg TG, normalized to pre-treatment and control: 0.755
ANGPTL3 gene [5]; [12]
  Avg TG, normalized to pre-treatment and control: 0.702
ANGPTL3 gene [5]; [13]
  Avg TG, normalized to pre-treatment and control: 0.700
ANGPTL3 gene [5]; [14]
  Avg TG, normalized to pre-treatment and control: 0.648

## AD05487: RNAi agent duplex: antisense AM07233-AS, sense AM07232-SS (antisense mU*fA*mC*fUmGfAmUfCmAfAmAfUmAfUmGfUmUfGmAfG*mU; sense {NAG37}*[invAb]*mAmCmUmCmAmAmCmAfUfAfUmUmUmGmAmUmCmAmGmUmA*[invAb])
ANGPTL3 gene [6]; Day 8
  Avg LDL, normalized to pre-treatment and control: 0.916
ANGPTL3 gene [6]; Day 15
  Avg LDL, normalized to pre-treatment and control: 1.125
ANGPTL3 gene [6]; Day 22
  Avg LDL, normalized to pre-treatment and control: 0.845
ANGPTL3 gene [6]; Day 29
  Avg LDL, normalized to pre-treatment and control: 0.744
ANGPTL3 gene [6]; Day 43
  Avg LDL, normalized to pre-treatment and control: 0.989
ANGPTL3 gene [6]; day 29, single 1 mg/kg subcutaneous, C57bl/6 mice
  LDL levels reduced: ~20%
ANGPTL3 gene [7]; [15]
  Avg HDL, normalized to pre-treatment and control: 0.716
ANGPTL3 gene [7]; [16]
  Avg HDL, normalized to pre-treatment and control: 0.918
ANGPTL3 gene [7]; [17]
  Avg HDL, normalized to pre-treatment and control: 0.658
ANGPTL3 gene [7]; [18]
  Avg HDL, normalized to pre-treatment and control: 0.745
ANGPTL3 gene [7]; [19]
  Avg HDL, normalized to pre-treatment and control: 0.934
ANGPTL3 gene [8]; [15]
  Avg Total Chol, normalized to pre-treatment and control: 0.728
ANGPTL3 gene [8]; [16]
  Avg Total Chol, normalized to pre-treatment and control: 0.944
ANGPTL3 gene [8]; [17]
  Avg Total Chol, normalized to pre-treatment and control: 0.697
ANGPTL3 gene [8]; [18]
  Avg Total Chol, normalized to pre-treatment and control: 0.560
ANGPTL3 gene [8]; [19]
  Avg Total Chol, normalized to pre-treatment and control: 0.923
ANGPTL3 protein [9]; Day 8
  Avg ANGPTL3 (Average ANGPTL3 Protein Normalized to Pre-Treatment and Control): 0.173
ANGPTL3 protein [9]; Day 15
  Avg ANGPTL3 (Average ANGPTL3 Protein Normalized to Pre-Treatment and Control): 0.170
ANGPTL3 protein [9]; Day 22
  Avg ANGPTL3 (Average ANGPTL3 Protein Normalized to Pre-Treatment and Control): 0.138
ANGPTL3 protein [9]; Day 29
  Avg ANGPTL3 (Average ANGPTL3 Protein Normalized to Pre-Treatment and Control): 0.226
ANGPTL3 protein [9]; Day 43
  Avg ANGPTL3 (Average ANGPTL3 Protein Normalized to Pre-Treatment and Control): 0.477
ANGPTL3 protein [9]; day 15, single 1 mg/kg subcutaneous, C57bl/6 mice
  ANGPTL3 protein normalized to pre-treatment and control: 0.170
ANGPTL3 protein [9]; day 22, single 1 mg/kg subcutaneous, C57bl/6 mice
  ANGPTL3 protein normalized to pre-treatment and control: 0.138
ANGPTL3 protein [9]; days 15 and 22, single 1 mg/kg subcutaneous, C57bl/6 mice
  knockdown of ANGPTL3 protein: ~75%
ANGPTL3 gene [10]; Day 8, 1.0 mg/kg single subcutaneous dose on day 1, female C57bl/6 mice
  Avg TG (Average Triglycerides Normalized to Pre-Treatment and Control): 0.776
ANGPTL3 gene [10]; Day 15, 1.0 mg/kg single subcutaneous dose on day 1, female C57bl/6 mice
  Avg TG (Average Triglycerides Normalized to Pre-Treatment and Control): 0.912
ANGPTL3 gene [10]; Day 22, 1.0 mg/kg single subcutaneous dose on day 1, female C57bl/6 mice
  Avg TG (Average Triglycerides Normalized to Pre-Treatment and Control): 0.761
ANGPTL3 gene [10]; Day 29, 1.0 mg/kg single subcutaneous dose on day 1, female C57bl/6 mice
  Avg TG (Average Triglycerides Normalized to Pre-Treatment and Control): 0.556
ANGPTL3 gene [10]; Day 43, 1.0 mg/kg single subcutaneous dose on day 1, female C57bl/6 mice
  Avg TG (Average Triglycerides Normalized to Pre-Treatment and Control): 0.757
